Experimental data published in PubChem BioAssay AID248 (DTP/NCI, 2004).
“And” between values parts separate entries of the source, which are not always exact repeats. Equal values may be shown once. Toxic doses and inconclusive results are not listed. No stated cut-off is given here; in the data, active means T/C of 150% or more; inactive means T/C below 125%.

Test system: L1210 leukemia ip in BDF1 mice, survival T/C
Assay: NCI In Vivo Anticancer Drug Screen. Data for tumor model L1210 Leukemia (intraperitoneal) in B6D2F1 (BDF1) mice
Conditions: endpoint: mean survival time, higher = longer survival
Method in brief: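 In this screen, tumor-bearing mice given compound are compared to those given vehicle, and their survival values are reported as a treated-to-control quotient.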

[1] = dose: 50.0 mg/kg/injection, schedule: Q01DX001 (ip), vehicle: saline
[2] = dose: 100.0 mg/kg/injection, schedule: Q01DX001 (ip), vehicle: saline
[3] = dose: 100.0 mg/kg/injection, schedule: Q04DX003 (ip), vehicle: saline
[4] = dose: 100.0 mg/kg/injection, schedule: Q04DX003 (ip), vehicle: saline with Tween-80
[5] = dose: 200.0 mg/kg/injection, schedule: Q04DX003 (ip), vehicle: saline with Tween-80
[6] = dose: 400.0 mg/kg/injection, schedule: Q04DX003 (ip), vehicle: saline with Tween-80
[7] = dose: 100.0 mg/kg/injection, schedule: Q01DX009 (ip), vehicle: saline
[8] = dose: 200.0 mg/kg/injection, schedule: Q01DX009 (ip), vehicle: saline

Measured: T/C

OCCOCCN1CCN(CC/C=C2\c3ccccc3Sc3ccc(C(F)(F)F)cc32)CC1
inactive: dose: 1.56 mg/kg/injection, schedule: Q01DX009 (ip), vehicle: saline 104 % of control | dose: 1.56 mg/kg/injection, schedule: Q04DX003 (ip), vehicle: saline 100 % of control | dose: 2.5 mg/kg/injection, schedule: Q01DX009 (ip), vehicle: saline 98 % of control | dose: 3.12 mg/kg/injection, schedule: Q01DX009 (ip), vehicle: saline 111 % of control | dose: 3.12 mg/kg/injection, schedule: Q04DX003 (ip), vehicle: saline 94 % of control | dose: 5.0 mg/kg/injection, schedule: Q01DX009 (ip), vehicle: saline 108 % of control | dose: 6.25 mg/kg/injection, schedule: Q01DX009 (ip), vehicle: saline 106 % of control | dose: 6.25 mg/kg/injection, schedule: Q04DX003 (ip), vehicle: saline 101 % of control | dose: 6.9 mg/kg/injection, schedule: Q01DX015 (ip), vehicle: saline 115 % of control | dose: 8.0 mg/kg/injection, schedule: Q04DX003 (ip), vehicle: saline with Tween-80 116 % of control | dose: 9.2 mg/kg/injection, schedule: Q01DX009 (ip), vehicle: saline 103 % of control | dose: 10.0 mg/kg/injection, schedule: Q01DX009 (ip), vehicle: saline 117 % of control | dose: 10.3 mg/kg/injection, schedule: Q01DX015 (ip), vehicle: saline 105 % of control | dose: 14.0 mg/kg/injection, schedule: Q01DX009 (ip), vehicle: saline 117 % of control | dose: 20.0 mg/kg/injection, schedule: Q01DX009 (ip), vehicle: saline 117 % of control | dose: 21.0 mg/kg/injection, schedule: Q01DX009 (ip), vehicle: saline 88 % of control | dose: 25.0 mg/kg/injection, schedule: Q01DX001 (ip), vehicle: saline 116 % of control | dose: 40.0 mg/kg/injection, schedule: Q01DX009 (ip), vehicle: saline 96 % of control | [1] 105 % of control and 114 % of control | [2] 108 % of control | [3] 123 % of control

CCCCNC(=O)Nc1ccc(N(CC)CC)cc1
inactive: dose: 100.0 mg/kg/injection, schedule: Q01DX009 (ip), vehicle: saline with Tween-80 101 % of control | [4] 94 % of control | dose: 200.0 mg/kg/injection, schedule: Q01DX009 (ip), vehicle: saline with Tween-80 88 % of control | [5] 97 % of control | dose: 400.0 mg/kg/injection, schedule: Q01DX009 (ip), vehicle: saline with Tween-80 90 % of control | [6] 100 % of control

O=c1c2ccccc2nnn1-c1ccccc1Cl
inactive: [7] 105 % of control | [8] 103 % of control | dose: 400.0 mg/kg/injection, schedule: Q01DX009 (ip), vehicle: saline 89 % of control

O=C(CS(=O)(=O)Cc1ccccc1)c1ccccc1
inactive: dose: 100.0 mg/kg/injection, schedule: Q04DX003 (ip), vehicle: Klucel (hydroxypropylcellulose) (HPC) 98 % of control | dose: 200.0 mg/kg/injection, schedule: Q04DX003 (ip), vehicle: Klucel (hydroxypropylcellulose) (HPC) 98 % of control | dose: 400.0 mg/kg/injection, schedule: Q04DX003 (ip), vehicle: Klucel (hydroxypropylcellulose) (HPC) 101 % of control

COC1CC2C(C[CH]1[Hg][Cl])C2(Cl)Cl (configuration not stated)
inactive: dose: 3.13 mg/kg/injection, schedule: Q01DX009 (ip), vehicle: saline with Tween-80 103 % of control | dose: 6.25 mg/kg/injection, schedule: Q01DX009 (ip), vehicle: saline with Tween-80 94 % of control | dose: 6.25 mg/kg/injection, schedule: Q04DX003 (ip), vehicle: saline with Tween-80 105 % of control | dose: 12.5 mg/kg/injection, schedule: Q01DX009 (ip), vehicle: saline with Tween-80 96 % of control | dose: 12.5 mg/kg/injection, schedule: Q04DX003 (ip), vehicle: saline with Tween-80 96 % of control

CC(=O)Nc1ccc(-c2ccc(C)cc2)cc1
inactive: [4] 104 % of control | [5] 106 % of control | [6] 95 % of control

CC(CN(C)N=O)C1CCC2C3CC=C4CC(O)CCC4(C)C3CCC12C (configuration not stated)
inactive: dose: 100.0 mg/kg/injection, schedule: Q01DX001 (sc), vehicle: steriod suspending solution 96 % of control | dose: 200.0 mg/kg/injection, schedule: Q01DX001 (sc), vehicle: steriod suspending solution 96 % of control | dose: 400.0 mg/kg/injection, schedule: Q01DX001 (sc), vehicle: steriod suspending solution 100 % of control

BrC1=C(Br)C2(Br)C(c3ccccc3)CC1(Br)C2(Br)Br (configuration not stated)
inactive: [3] 92 % of control | dose: 200.0 mg/kg/injection, schedule: Q04DX003 (ip), vehicle: saline 106 % of control | dose: 400.0 mg/kg/injection, schedule: Q04DX003 (ip), vehicle: saline 92 % of control

Cc1nn(-c2ccccc2)c(N)c1C#N
inactive: dose: 25.0 mg/kg/injection, schedule: Q01DX009 (ip), vehicle: saline 100 % of control | dose: 50.0 mg/kg/injection, schedule: Q01DX009 (ip), vehicle: saline 97 % of control | dose: 75.0 mg/kg/injection, schedule: Q01DX009 (ip), vehicle: saline 98 % of control | [7] 103 % of control and 121 % of control | dose: 150.0 mg/kg/injection, schedule: Q01DX009 (ip), vehicle: saline 103 % of control | [8] 106 % of control

CCCP(=S)(CCC)N(C)C
inactive: [4] 101 % of control | [5] 104 % of control

CCOC(=O)c1c[nH]c2nc(N)ccc2c1=O
inactive: [1] 104 % of control | [2] 106 % of control | dose: 200.0 mg/kg/injection, schedule: Q01DX001 (ip), vehicle: saline 106 % of control | dose: 400.0 mg/kg/injection, schedule: Q01DX001 (ip), vehicle: saline 101 % of control

CCOC(=O)C1C(=O)C(C(C2C(=O)C(C(=O)OCC)C(c3ccc(O)cc3)C(C(=O)OCC)C2=O)C(O)C(O)C(O)CO)C(=O)C(C(=O)OCC)C1c1ccc(O)cc1 (configuration not stated) (tested in a mixture with another compound)
inactive: dose: 50.0 mg/kg/injection, schedule: Q01DX009 (ip), vehicle: Klucel (hydroxypropylcellulose) (HPC) 101 % of control and 96 % of control | dose: 100.0 mg/kg/injection, schedule: Q01DX009 (ip), vehicle: Klucel (hydroxypropylcellulose) (HPC) 93 % of control and 96 % of control | dose: 200.0 mg/kg/injection, schedule: Q01DX009 (ip), vehicle: Klucel (hydroxypropylcellulose) (HPC) 104 % of control and 107 % of control

CCCCCCC(C)OCC(=O)c1ccccc1 (configuration not stated)
inactive: dose: 100.0 mg/kg/injection, schedule: Q04DX002 (ip), vehicle: saline 94 % of control | dose: 200.0 mg/kg/injection, schedule: Q04DX002 (ip), vehicle: saline 91 % of control

COc1ccc(OC)c(CCCC(=O)O)c1
inactive: dose: 50.0 mg/kg/injection, schedule: Q01DX001 (ip), vehicle: carboxymethylcellulose (CMC) 108 % of control | dose: 100.0 mg/kg/injection, schedule: Q01DX001 (ip), vehicle: carboxymethylcellulose (CMC) 104 % of control | dose: 200.0 mg/kg/injection, schedule: Q01DX001 (ip), vehicle: carboxymethylcellulose (CMC) 104 % of control | dose: 400.0 mg/kg/injection, schedule: Q01DX001 (ip), vehicle: carboxymethylcellulose (CMC) 102 % of control

CN(Cc1cnc2cc(N)nc(N)c2n1)c1ccc(C(=O)O)cc1
inactive: dose: 25.0 mg/kg/injection, schedule: Q01DX009 (ip), vehicle: other 108 % of control | dose: 50.0 mg/kg/injection, schedule: Q01DX009 (ip), vehicle: other 106 % of control | dose: 75.0 mg/kg/injection, schedule: Q01DX001 (ip), vehicle: other 98 % of control | dose: 100.0 mg/kg/injection, schedule: Q01DX009 (ip), vehicle: other 101 % of control | dose: 150.0 mg/kg/injection, schedule: Q01DX001 (ip), vehicle: other 102 % of control | dose: 300.0 mg/kg/injection, schedule: Q01DX001 (ip), vehicle: other 105 % of control

CC1=CC(=O)C=CC1(C)C(Cl)Cl (configuration not stated)
inactive: [4] 107 % of control | [5] 100 % of control | [6] 97 % of control
